Experimental data: article PMC2990756, “Quantitative High-Throughput Screening Identifies 8-Hydroxyquinolines as Cell-Active Histone Demethylase Inhibitors” (PLoS ONE, 2010)

Legend:
[1] = target: T1, JMJD2E (KDM4E) (Homo sapiens, UniProt B2RXH2); test: qHTS fluorescence FDH-coupled JMJD2E demethylase assay; type: biochemical; settings: Table S1; unit not in table, from Figure 2; read-out: qHTS Data: jmjd2e IC50
T1 construct: The catalytic domain of human JMJD2E (residues 1–337); His6 (N); made in house; host or cells: E. coli
T1 sequence (B2RXH2 1-337): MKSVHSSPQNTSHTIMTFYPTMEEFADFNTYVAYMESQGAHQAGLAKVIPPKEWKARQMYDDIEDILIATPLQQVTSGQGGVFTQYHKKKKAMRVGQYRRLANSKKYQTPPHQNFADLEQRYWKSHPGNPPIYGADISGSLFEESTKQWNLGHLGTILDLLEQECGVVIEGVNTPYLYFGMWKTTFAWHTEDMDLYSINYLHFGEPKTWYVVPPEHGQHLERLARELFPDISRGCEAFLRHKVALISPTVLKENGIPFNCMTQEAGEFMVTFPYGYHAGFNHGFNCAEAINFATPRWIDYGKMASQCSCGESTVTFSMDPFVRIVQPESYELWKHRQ

[2] = target: T2, formaldehyde dehydrogenase (FDH) (Pseudomonas putida, UniProt P46154); test: FDH coupling enzyme counterscreen; type: biochemical; settings: Table S1, FDH counterscreen; for IC50: unit not in table, from Figure 2, read-out: qHTS Data: jmjd2e fdh IC50
T2 construct: purchased Sigma-Aldrich
T2 sequence (P46154 whole entry): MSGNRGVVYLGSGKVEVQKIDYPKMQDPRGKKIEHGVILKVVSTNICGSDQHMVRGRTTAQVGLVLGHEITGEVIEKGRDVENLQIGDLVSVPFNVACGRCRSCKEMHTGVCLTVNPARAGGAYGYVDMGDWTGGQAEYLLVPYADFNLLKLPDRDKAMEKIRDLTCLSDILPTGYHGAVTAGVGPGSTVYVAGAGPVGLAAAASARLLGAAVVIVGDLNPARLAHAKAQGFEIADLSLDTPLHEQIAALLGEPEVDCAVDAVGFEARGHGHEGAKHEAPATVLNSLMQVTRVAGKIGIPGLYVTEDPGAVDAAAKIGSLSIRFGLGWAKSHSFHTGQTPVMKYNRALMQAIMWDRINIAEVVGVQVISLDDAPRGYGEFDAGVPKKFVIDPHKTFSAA
From the text: Dimethylsulfoxide certified ACS grade (DMSO) was from Fisher, Inc. HEPES buffer was obtained from Gibco. […] Black solid-bottom 1,536-well assay plates were from Greiner Bio-One (Monroe, NC).

[3] = target: T3, JMJD2E (Homo sapiens, UniProt B2RXH2); test: MALDI-TOF MS demethylation assay, JMJD2E; settings: Table S1, 2 µM JMJD2E; for MALDI-TOF Data: Span: span of the fitted curve; for IC50: read-out: MALDI-TOF Data: IC50, unit not in table, ~ values are poorly fitted
T3 sequence (B2RXH2 1-337): T1 sequence (B2RXH2 1-337)
Method: Initially, JMJD2, Fe(II), ascorbate and inhibitors were pre-incubated for 15 min prior to the addition of peptide and 2OG. The reaction was incubated for 30 min before 1∶1 quenching with methanol followed by addition of four volumes of 20 mM triammonium citrate. […] The diluted assay mixture (1 µL) from JMJD2 and PHD2 assays were mixed with 1 µL of α-cyano-4-hydroxycinnamic acid and 1 µL of FIH assay mixture was mixed with 1 µL of sinapinic acid matrix, and assessed by matrix-assisted laser desorption/ionization-time of flight (MALDI-TOF).

[4] = target: T3, JMJD2E; test: JMJD2E FDH-coupled assay under low and high iron conditions (iron chelation profile); type: biochemical; set-up: The catalytic domain of human JMJD2E (residues 1–337); His6 (N); made in house; host or cells: E. coli; settings: Table S1; for IC50: unit not in table, from Figure 2
Method: The prioritized compounds were also evaluated in the screening assay using two different ferrous ion concentrations (termed high iron and low iron, respectively), in order to assess their propensity for iron chelation.
The ratio of IC50 values under high iron to low iron was calculated for each compound.

[5] = high iron, head says 20 µM FAS, read-out: qHTS Data: jmjd2e fas20um IC50
[6] = low iron 2.5 µM FAS, read-out: qHTS Data: jmjd2e fas2.5um IC50

SMILES | IC50 [1] | qHTS Data: jmjd2e fdh CurveClass [2] | MALDI-TOF Data: Span [3] | IC50 [3] | IC50 [4, 5] | IC50 [4, 6] | qHTS Data: jmjd2e fas20um CurveClass ([4]; high iron) | IC50 [2] | qHTS Data: jmjd2e fas2.5um Curve comment ([4]; low iron 2.5 µM FAS)
CN1CCN(Cc2cc(COCc3ccccc3)c3cccnc3c2O)CC1 [compound 4248346] | 8.91 µM | Inactive | 96.1 | 17.2 µM | 8.91 µM | 7.08 µM | – | – | –
CCCCc1ccc(C(=O)O)nc1 [compound 11111188] | 3.98 µM | Inactive | ~ 5848 | – | 1.58 µM | 3.55 µM | – | – | –
O=c1c(O)c(-c2cc(O)c(O)c(O)c2)oc2cc(O)cc(O)c12 [compound 11111488] | – | Inactive | 95.03 | – | – | – | Poor quality curve | – | –
C[C@@](Cc1ccc(O)c(O)c1)(NN)C(=O)O [compound 11113507] | 3.55 µM | Inactive | 95.69 | 5.6 µM | 14.1 µM | 3.55 µM | – | – | –
O=c1cc(-c2ccccc2)oc2cc(O)c(O)c(O)c12 [compound 11114203] | 0.89 µM | Inactive | 89.05 | 5.8 µM | 8.91 µM | 2.24 µM | – | – | –
c1cnc2c(c1)ccc1cccnc12 [compound 11533040] | 0.25 µM | Inactive | 93.01 | ~26.5 µM | 3.98 µM | 10 µM | – | – | –
Oc1ccc(NCc2ccccc2OCc2ccccc2F)cc1 [compound 17385881] | 5.01 µM | Poor quality curve | 3.087 | – | 8.91 µM | 8.91 µM | – | 14.1 µM | –
Cl.NCCc1cc(O)c(O)cc1O [compound 26748180] | 6.31 µM | Poor quality curve | – | – | 7.94 µM | 2.51 µM | – | – | –
CN(C)C1C(=O)C(C(N)=O)=C(O)[C@@]2(O)C(=O)C3=C(O)c4c(O)cccc4[C@@](C)(O)C3CC12.Cl (stereo partly shown) [compound 26748266] | 2.51 µM | Poor quality curve | – | – | 1.78 µM | 15.8 µM | – | 15.8 µM | –
C=C1c2cccc(O)c2C(O)=C2C(=O)[C@]3(O)C(O)=C(C(N)=O)C(=O)C(N(C)C)C3C(O)C12.Cl (stereo partly shown) [compound 26748477] | 8.91 µM | Inactive | – | – | 2.51 µM | 12.6 µM | Poor quality curve | – | –
O=C(OCC1OC(OC(=O)c2cc(O)c(O)c(OC(=O)c3cc(O)c(O)c(O)c3)c2)[C@@H](OC(=O)c2cc(O)c(O)c(OC(=O)c3cc(O)c(O)c(O)c3)c2)C(OC(=O)c2cc(O)c(O)c(OC(=O)c3cc(O)c(O)c(O)c3)c2)C1OC(=O)c1cc(O)c(O)c(OC(=O)c2cc(O)c(O)c(O)c2)c1)c1cc(O)c(O)c(OC(=O)c2cc(O)c(O)c(O)c2)c1 (stereo partly shown) [compound 26748902] | 0.28 µM | – | – | – | 15.8 µM | 0.16 µM | – | 7.94 µM | –
CCc1ccc2c(O)c3c(cc2c1C(=O)OC)C(=O)c1c(O)ccc(O)c1C3=O [compound 26749155] | 2.82 µM | Poor quality curve | – | – | 11.2 µM | 3.98 µM | – | 3.16 µM | –
O=C1C=CC(=O)c2c(O)cccc21 [compound 26749198] | 7.08 µM | Inactive | – | – | 14.1 µM | 5.01 µM | – | – | –
O=C1c2ccc(O)c(O)c2C(=O)c2c(O)ccc(O)c21 [compound 26749241] | 3.55 µM | Inactive | – | – | 15.8 µM | 2.51 µM | – | – | –
Oc1cc2c(cc1O)C1c3ccc(O)c(O)c3OCC1(O)C2 (stereo not shown) [compound 26749470] | 0.71 µM | Inactive | – | – | 14.1 µM | 1.58 µM | Poor quality curve | – | –
O=c1c(-c2cc(O)c(O)c(O)c2)coc2cc(O)c(O)c(O)c12 [compound 26749510] | 2.82 µM | – | – | – | 14.1 µM | 1 µM | – | 3.98 µM | –
CCOc1cccc(C(=O)c2ccc(O)c(O)c2O)c1 [compound 26749554] | 10 µM | Inactive | – | – | 8.91 µM | 4.47 µM | – | – | –
O=C1C=CC2=C3c4cc(O)c(O)cc4CC3(O)COC2=C1O (stereo not shown) [compound 26749676] | 6.31 µM | – | – | – | 17.8 µM | 2 µM | Poor quality curve | 11.2 µM | –

SMILES | IC50 [1] | qHTS Data: jmjd2e fdh CurveClass [2] | MALDI-TOF Data: Span [3] | IC50 [3] | IC50 [4, 5] | IC50 [4, 6] | qHTS Data: jmjd2e fas20um CurveClass ([4]; high iron) | IC50 [2] | qHTS Data: jmjd2e fas2.5um Curve comment ([4]; low iron 2.5 µM FAS)
O=C(OC1Cc2c(O)cc(O)cc2OC1c1cc(O)c(O)c(O)c1)c1cc(O)c(O)c(O)c1 (stereo not shown) [compound 26749738] | 2.51 µM | Poor quality curve | – | – | 7.08 µM | 1.41 µM | – | 14.1 µM | –
COc1cccc(O)c1O [compound 26749778] | 7.94 µM | Inactive | – | – | 15.8 µM | 4.47 µM | – | – | –
COC(=O)c1cc(=O)c(O)c2c(O)c(O)ccc2c1 [compound 26749939] | 8.91 µM | Inactive | – | – | 22.4 µM | 7.94 µM | – | – | –
O=c1c(O)c(-c2ccc(O)c(O)c2)oc2c(O)c(O)cc(O)c12 [compound 26750048] | 2.82 µM | Inactive | – | – | – | 1.41 µM | Inactive | – | –
CNC[C@H](O)c1ccc(O)c(O)c1 [compound 26754418] | 7.08 µM | Inconclusive | – | – | 12.6 µM | 5.01 µM | – | – | –
Oc1ccccc1O [compound 50105556] | 14.1 µM | Inactive | – | – | 14.1 µM | 10 µM | Poor quality curve | – | –
NCC(O)c1ccc(O)c(O)c1.O=C(O)C(O)C(O)C(=O)O (stereo not shown) [compound 50105780] | 12.6 µM | Inactive | – | – | 2 µM | 4.47 µM | – | – | –
Cl.Nc1ccn([C@@H]2O[C@H](CO)[C@@H](O)[C@@H]2O)c(=O)n1 [compound 50106080] | 0.89 µM | Inactive | – | – | 7.94 µM | – | – | – | Inactive
CNCCc1ccc(O)c(O)c1.Cl [compound 50106160] | 14.1 µM | Poor quality curve | – | – | 11.2 µM | 4.47 µM | – | 3.16 µM | –
N[C@H](Cc1ccc(O)c(O)c1)C(=O)O [compound 50106235] | 17.8 µM | Inactive | – | – | 12.6 µM | 12.6 µM | – | – | –
CN[C@@H](C)[C@H](O)c1ccccc1.CN[C@@H](C)[C@H](O)c1ccccc1.O=S(=O)(O)O [compound 50106282] | 3.55 µM | Poor quality curve | – | – | 7.94 µM | 2.24 µM | 1.2 | 12.6 µM | –
Cl.NCCc1ccc(O)c(O)c1 [compound 50106387] | 12.6 µM | Inactive | – | – | 3.98 µM | 11.2 µM | – | – | –
CC1(C)CCC2=C(O1)c1ccccc1C(=O)C2=O [compound 50106535] | 3.55 µM | – | 91.75 | 28.6 µM | – | – | – | – | –
CC(C)C1C(=O)C(C(N)=O)=C(O)[C@@]2(O)C(=O)C3=C(O)c4c(O)ccc(N(C)C)c4C[C@H]3C[C@@H]12.Cl (stereo partly shown) [compound 50106632] | 10 µM | Inactive | – | – | 12.6 µM | 12.6 µM | Poor quality curve | – | –
CN(N=O)c1ccc(O)c(O)c1 [compound 50106719] | 10 µM | Poor quality curve | – | – | – | 7.94 µM | Inactive | 31.6 µM | –
Cc1nc(-c2coc3c(O)c(O)ccc3c2=O)cs1 [compound 50110018] | 7.08 µM | Poor quality curve | – | – | 15.8 µM | 7.08 µM | – | 17.8 µM | –
O=c1c(O)c(Br)ccc2c(Br)c(O)c(O)c(O)c12 [compound 50110019] | 7.08 µM | Poor quality curve | – | – | – | 5.01 µM | Inconclusive | 28.2 µM | –
